# Assays:
# [1] = Solubility in organic solvents; assay type: physicochemical
# LXRβ = target: T1, LXRβ (Homo sapiens, UniProt P55055); assay: LXR antagonistic activity, GAL-hLXR luciferase transfection assay in CV-1 cells; assay type: cell-based; conditions: antagonism, together with agonist TO901317 (2.5 μM), 24 hours
# T1 sequence (P55055 222-460 limits assumed): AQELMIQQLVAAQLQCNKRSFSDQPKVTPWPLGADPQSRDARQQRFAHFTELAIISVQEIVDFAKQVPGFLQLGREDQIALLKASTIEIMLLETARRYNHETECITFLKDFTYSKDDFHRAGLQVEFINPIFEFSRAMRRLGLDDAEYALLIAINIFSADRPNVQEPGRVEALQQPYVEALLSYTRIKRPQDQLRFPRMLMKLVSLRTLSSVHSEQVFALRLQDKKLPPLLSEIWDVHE
# Experimental: (§1) Animal cell line CV-1 was used in transfection search. Cells were cultured in DMEM medium within a cell culture device containing 5% carbon dioxide at 37° C. The medium contained 10% FBS (fetal bovine serum), 100 U/ml penicillin, and 100 μg/ml streptomycin. On day 1 of the experiment, CV 1 cells were seeded in 96 well plates at 5,000 cells/well. On day 2, the seeded cells were transfected with plasmid expressing GAL-hLXR, plasmid expressing Luciferase gene, and plasmid expressing β-galactocidase by using a transfection reagent, Superfect (QIAGEN). After 16 hours, the transfected cells were treated with the compound 1 dissolved in dimethylsulfoxide (DMSO) by the concentrations, together with the agonist, TO901317 (2.5 μM). Cells treated with dimethylsulfoxide having the final concentration of 1% were used as a negative control group, and cells treated with T0901317 having the final concentration of 500 nM were used as a positive control group. The cells were cultured for 24 hours, and lysed by using a lysis buffer. […] The β-galactosidase activity, after adding of an ONPG reagent, was measured using an ELISA reader. The measured Luciferase value was corrected by activity value of β-galactosidase. […] In addition, the activities on various nuclear receptors were measured by using the same method, in order to measure selectivity for various nuclear receptors.
# LXRα = target: T2, LXRα (Homo sapiens, UniProt Q13133); assay: as above; assay type: cell-based; conditions: antagonism, together with agonist TO901317 (2.5 μM), 24 hours
# T2 sequence (Q13133 209-447 limits assumed): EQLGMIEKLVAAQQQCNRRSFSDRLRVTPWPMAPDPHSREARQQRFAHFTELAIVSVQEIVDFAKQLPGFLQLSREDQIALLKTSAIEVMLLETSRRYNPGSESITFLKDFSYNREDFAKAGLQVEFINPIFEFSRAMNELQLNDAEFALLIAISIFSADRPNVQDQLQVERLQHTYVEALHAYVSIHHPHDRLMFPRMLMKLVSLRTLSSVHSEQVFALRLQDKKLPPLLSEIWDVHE
# Experimental: as §1
compound,measurement,setting,value
CC(C)=CCC/C(C)=C/[C@H]1CC(C)=C[C@@]2(C=C(CO)[C@@H]3CC(=O)C(C)=C[C@@H]3O2)O1 [Compound 1],Solubility,[1],"Easily Dissolved in Organic Solvent of Acetone, Methanol, DMSO, etc."
same,IC50,LXRβ,20.4 nM
same,IC50,LXRα,18.7 nM

# From US8703813B2, “Compound with spiro chiral carbon backbone, preparation method thereof, and pharmaceutical composition containing the same” (SNU R & DB Foundation, priority 2008, dated 2014)
